Measured values as given in PMC7112848 (Journal of Virological Methods, 2008).

Molecular target: rgH1N1 NA (Influenza A virus, UniProt Q6DPL2)
Assay type: biochemical, reverse-genetic influenza A virus rgH1N1

Sequence of rgH1N1 NA (Q6DPL2 whole entry, looked up): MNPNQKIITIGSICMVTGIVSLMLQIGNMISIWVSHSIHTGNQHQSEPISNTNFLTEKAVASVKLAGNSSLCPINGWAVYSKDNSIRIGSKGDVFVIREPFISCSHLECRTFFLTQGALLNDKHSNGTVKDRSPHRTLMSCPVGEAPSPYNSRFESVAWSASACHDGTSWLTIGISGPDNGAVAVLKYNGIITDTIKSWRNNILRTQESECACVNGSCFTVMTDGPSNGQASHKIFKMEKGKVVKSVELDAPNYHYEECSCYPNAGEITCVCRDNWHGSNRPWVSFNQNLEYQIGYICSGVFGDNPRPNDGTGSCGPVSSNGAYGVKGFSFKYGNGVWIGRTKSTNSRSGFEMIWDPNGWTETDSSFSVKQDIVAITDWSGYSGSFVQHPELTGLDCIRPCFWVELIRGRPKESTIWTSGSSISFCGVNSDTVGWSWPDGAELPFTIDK

**Q.** How did the Km turn out when `CC(=O)N[C@@H]1[C@@H](O)C[C@](Oc2ccc3c(C)cc(=O)oc3c2)(C(=O)O)O[C@H]1C(O)[C@H](O)CO` (stereo partly drawn) [MUNANA, 2′-(4-methylumbelliferyl)-α-D-N-acetylneuraminic acid] was run?
**A.** The Km was 18 ± 2 µM.
